Data as given in PubChem BioAssay (NCI).
Several values for one entry are separate records, joined by “and”; a condition that tells them apart may be missing. Equal entries are not always repeated.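 Following 48 hours of exposure in 96-well plates, responses at five concentrations were used to interpolate endpoints linearly. The concentration for 50% growth inhibition is given as GI50. At the TGI there is no net growth.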

What was measured:
Experiment in all cases: DTP human tumour cell line panel, 48 h
SN12C renal = system: SN12C renal
SF-539 CNS = system: SF-539 CNS
HOP-62 NSCLC = system: HOP-62 NSCLC
NCI-H460 lung = system: NCI-H460 lung
EKVX NSCLC = system: EKVX NSCLC
DMS 114 small cell lung = system: DMS 114 small cell lung
CAKI-1 renal = system: CAKI-1 renal
HOP-18 NSCLC = system: HOP-18 NSCLC
SK-MEL-28 melanoma = system: SK-MEL-28 melanoma
HOP-92 NSCLC = system: HOP-92 NSCLC

Nc1cc(=O)n(-c2ccccc2)c(=S)n1-c1ccccc1
TGI (SN12C renal): > 100 µM
TGI (SF-539 CNS): > 100 µM
TGI (HOP-62 NSCLC): > 100 µM
TGI (NCI-H460 lung): > 100 µM
TGI (EKVX NSCLC): > 100 µM
TGI (DMS 114 small cell lung): > 100 µM
TGI (CAKI-1 renal): > 100 µM

c1ccc2c(c1)N=C(c1cccc3ccccc13)CC(c1ccc3c(c1)OCO3)S2 (centres undefined)
TGI (SN12C renal): > 100 µM
TGI (HOP-18 NSCLC): > 100 µM
TGI (SF-539 CNS): > 100 µM
TGI (HOP-62 NSCLC): > 100 µM
TGI (NCI-H460 lung): > 100 µM
TGI (EKVX NSCLC): > 100 µM
TGI (CAKI-1 renal): > 100 µM

Cc1cc(C)nc(NS(=O)(=O)c2ccc(Nc3c4ccc(Cl)cc4nc4c(C(=O)NCCN(C)C)cccc34)cc2)n1
TGI (SN12C renal): > 100 µM
TGI (SK-MEL-28 melanoma): > 100 µM
TGI (SF-539 CNS): > 100 µM
TGI (HOP-62 NSCLC): > 100 µM
TGI (NCI-H460 lung): > 100 µM
TGI (EKVX NSCLC): > 100 µM
TGI (DMS 114 small cell lung): > 100 µM
TGI (CAKI-1 renal): > 100 µM
TGI (HOP-92 NSCLC): > 100 µM

COC(=O)C(Cc1nc2ccccc2nc1C)/C(=N\NC(N)=O)C(=O)Nc1cccc([N+](=O)[O-])c1 (centres undefined)
TGI (SN12C renal): > 100 µM
TGI (SK-MEL-28 melanoma): > 100 µM
TGI (HOP-18 NSCLC): > 100 µM
TGI (SF-539 CNS): > 100 µM
TGI (HOP-62 NSCLC): > 100 µM
TGI (NCI-H460 lung): > 100 µM
TGI (EKVX NSCLC): > 100 µM
TGI (DMS 114 small cell lung): > 100 µM
TGI (CAKI-1 renal): > 100 µM

CCNC(=O)O/N=C1\CCC2[C@@H]3CC=C4C[C@@H](OC5CCCCO5)CC[C@]4(C)C3CC[C@]12C (some centres undefined)
TGI (SN12C renal): 6.07 µM
TGI (SK-MEL-28 melanoma): 10.8 µM
TGI (HOP-18 NSCLC): 4.28 µM
TGI (SF-539 CNS): > 100 µM
TGI (HOP-62 NSCLC): > 100 µM
TGI (NCI-H460 lung): 6.21 µM
TGI (EKVX NSCLC): 5.78 µM
TGI (CAKI-1 renal): 6.19 µM
TGI (HOP-92 NSCLC): 7.34 µM

Cc1ccccc1-n1c2nc(=O)n(C)c(=O)c-2nc2ccccc21
TGI (SN12C renal): 26.6 µM
TGI (HOP-18 NSCLC): 24.2 µM
TGI (SF-539 CNS): 29.2 µM
TGI (HOP-62 NSCLC): > 100 µM
TGI (NCI-H460 lung): 27.3 µM
TGI (EKVX NSCLC): 24.3 µM
TGI (DMS 114 small cell lung): 18.3 µM
TGI (CAKI-1 renal): 48.9 µM

O=C(/C(=C\c1ccc(Cl)cc1)c1ccccc1)c1ccccc1
TGI (SN12C renal): > 100 µM
TGI (SK-MEL-28 melanoma): > 100 µM
TGI (HOP-18 NSCLC): > 100 µM
TGI (SF-539 CNS): > 100 µM
TGI (HOP-62 NSCLC): > 100 µM
TGI (NCI-H460 lung): > 100 µM
TGI (EKVX NSCLC): > 100 µM
TGI (DMS 114 small cell lung): > 100 µM
TGI (HOP-92 NSCLC): > 100 µM

CN1CCN(C)C12C=CC=CC21CC1
TGI (SN12C renal): > 100 µM
TGI (HOP-18 NSCLC): > 100 µM
TGI (SF-539 CNS): > 100 µM
TGI (HOP-62 NSCLC): > 100 µM
TGI (NCI-H460 lung): > 100 µM
TGI (EKVX NSCLC): > 100 µM
TGI (DMS 114 small cell lung): > 100 µM
TGI (CAKI-1 renal): > 100 µM
TGI (HOP-92 NSCLC): > 100 µM

NCCNCc1c2ccccc2c(CNCCN)c2ccccc12
TGI (SN12C renal): 58.9 µM
TGI (HOP-18 NSCLC): 90.1 µM
TGI (SF-539 CNS): 29.5 µM
TGI (HOP-62 NSCLC): 69.3 µM
TGI (NCI-H460 lung): 27 µM
TGI (EKVX NSCLC): 50.1 µM
TGI (DMS 114 small cell lung): 33.1 µM
TGI (HOP-92 NSCLC): 45.9 µM

CC(=O)NC1C(OCc2ccccc2)OC(COC(=O)CCCCCCCCCCNc2ccc([N+](=O)[O-])c3[nH]c4ccccc4c(=O)c23)C(O)C1OC(C)C(=O)NC(C)C(=O)NC(CCC(N)=O)C(=O)OCc1ccccc1 (centres undefined)
TGI (SN12C renal): > 100 µM
TGI (SK-MEL-28 melanoma): > 100 µM
TGI (HOP-18 NSCLC): > 100 µM
TGI (SF-539 CNS): > 100 µM
TGI (HOP-62 NSCLC): > 100 µM
TGI (NCI-H460 lung): > 100 µM
TGI (EKVX NSCLC): > 100 µM
TGI (DMS 114 small cell lung): > 100 µM
TGI (CAKI-1 renal): > 100 µM

Cc1ccc2c(c1)S(=O)(=O)c1ccc3ccccc3c1N2
TGI (SN12C renal): > 100 µM
TGI (SK-MEL-28 melanoma): > 100 µM
TGI (SF-539 CNS): > 100 µM
TGI (HOP-62 NSCLC): > 100 µM
TGI (NCI-H460 lung): > 100 µM
TGI (EKVX NSCLC): > 100 µM
TGI (CAKI-1 renal): > 100 µM
TGI (HOP-92 NSCLC): > 100 µM

CC1(c2ccccc2)CC(c2cccc([N+](=O)[O-])c2)=NO1 (centres undefined)
TGI (SN12C renal): > 100 µM
TGI (SK-MEL-28 melanoma): > 100 µM
TGI (HOP-18 NSCLC): > 100 µM
TGI (SF-539 CNS): > 100 µM
TGI (HOP-62 NSCLC): > 100 µM
TGI (NCI-H460 lung): > 100 µM
TGI (DMS 114 small cell lung): > 100 µM
TGI (HOP-92 NSCLC): > 100 µM

Cc1ccc(S(=O)OCC23CC4CC(CC(C4)C2)C3)cc1 (centres undefined)
TGI (SN12C renal): > 100 µM
TGI (SK-MEL-28 melanoma): > 100 µM
TGI (HOP-18 NSCLC): > 100 µM
TGI (SF-539 CNS): > 100 µM
TGI (HOP-62 NSCLC): > 100 µM
TGI (NCI-H460 lung): > 100 µM
TGI (EKVX NSCLC): > 100 µM
TGI (CAKI-1 renal): > 100 µM
TGI (HOP-92 NSCLC): > 100 µM

Clc1ccc(OCc2nnc3n2N=C(c2ccc(Cl)cc2Cl)CS3)cc1
GI50 (SN12C renal): 14.8 µM
TGI (SN12C renal): 30.6 µM
GI50 (SK-MEL-28 melanoma): 20.6 µM
TGI (SK-MEL-28 melanoma): 44.6 µM
GI50 (SF-539 CNS): 17.4 µM
TGI (SF-539 CNS): 34.6 µM
GI50 (HOP-62 NSCLC): 19.6 µM
TGI (HOP-62 NSCLC): 41.3 µM
GI50 (NCI-H460 lung): 17.2 µM
TGI (NCI-H460 lung): 51 µM
GI50 (EKVX NSCLC): 20.5 µM
TGI (EKVX NSCLC): 52.9 µM
GI50 (CAKI-1 renal): 25.9 µM
TGI (CAKI-1 renal): 79.7 µM
GI50 (HOP-92 NSCLC): 14.3 µM
TGI (HOP-92 NSCLC): 41.2 µM

CCCCCCCCCCCCOC1C(CNC(=O)C2OC3OC(C)(C)OC3C2NC(=O)Nc2ccc(CC(=O)NC(Cc3ccccc3)C(=O)O)cc2)OC2OC(C)(C)OC21 (centres undefined)
GI50 (SN12C renal): > 25 µM
TGI (SN12C renal): > 25 µM
GI50 (SK-MEL-28 melanoma): > 25 µM
TGI (SK-MEL-28 melanoma): > 25 µM
GI50 (SF-539 CNS): > 25 µM
TGI (SF-539 CNS): > 25 µM
GI50 (HOP-62 NSCLC): > 25 µM
TGI (HOP-62 NSCLC): > 25 µM
GI50 (NCI-H460 lung): > 25 µM
TGI (NCI-H460 lung): > 25 µM
GI50 (EKVX NSCLC): > 25 µM
TGI (EKVX NSCLC): > 25 µM
GI50 (CAKI-1 renal): > 25 µM
TGI (CAKI-1 renal): > 25 µM
GI50 (HOP-92 NSCLC): > 25 µM
TGI (HOP-92 NSCLC): > 25 µM

Cn1c(NCC(O)CN2CCCC2)cc(=O)n(C)c1=O (centres undefined)
GI50 (SN12C renal): > 100 µM
TGI (SN12C renal): > 100 µM
GI50 (SK-MEL-28 melanoma): > 100 µM
TGI (SK-MEL-28 melanoma): > 100 µM
GI50 (SF-539 CNS): > 100 µM
TGI (SF-539 CNS): > 100 µM
GI50 (HOP-62 NSCLC): > 100 µM
TGI (HOP-62 NSCLC): > 100 µM
GI50 (NCI-H460 lung): > 100 µM
TGI (NCI-H460 lung): > 100 µM
GI50 (EKVX NSCLC): > 100 µM
TGI (EKVX NSCLC): > 100 µM
GI50 (CAKI-1 renal): > 100 µM
TGI (CAKI-1 renal): > 100 µM
GI50 (HOP-92 NSCLC): > 100 µM
TGI (HOP-92 NSCLC): > 100 µM

CCCCCCCCC(=O)OCC(CS[As](C)C)OC(=O)CCCCCCCC (centres undefined)
GI50 (SN12C renal): 2.08 µM
TGI (SN12C renal): 12.6 µM
GI50 (SK-MEL-28 melanoma): 1.12 µM
TGI (SK-MEL-28 melanoma): 16.2 µM
GI50 (SF-539 CNS): 0.49 µM
TGI (SF-539 CNS): 1.28 µM
GI50 (HOP-62 NSCLC): 15.1 µM
TGI (HOP-62 NSCLC): 53.1 µM
GI50 (NCI-H460 lung): 21.7 µM
TGI (NCI-H460 lung): 58.3 µM
GI50 (EKVX NSCLC): 2.45 µM
TGI (EKVX NSCLC): 19 µM
GI50 (CAKI-1 renal): 0.22 µM
TGI (CAKI-1 renal): 1.12 µM
GI50 (HOP-92 NSCLC): 1.93 µM
TGI (HOP-92 NSCLC): 18.3 µM

O=C1CCSC2=C1SCc1sccc12
TGI (SN12C renal): > 100 µM
TGI (SK-MEL-28 melanoma): > 100 µM
TGI (HOP-62 NSCLC): > 100 µM
TGI (NCI-H460 lung): > 100 µM
TGI (EKVX NSCLC): > 100 µM
TGI (DMS 114 small cell lung): > 100 µM
TGI (CAKI-1 renal): > 100 µM
TGI (HOP-92 NSCLC): > 100 µM

Cc1c(O)c2c(c(O)c1Br)C(=O)C=CC2=O
TGI (SN12C renal): 2.73 µM
GI50 (SK-MEL-28 melanoma): 1.59 µM
TGI (SK-MEL-28 melanoma): 2.33 µM and 3.07 µM
GI50 (SF-539 CNS): 1.68 µM
TGI (SF-539 CNS): 1.66 µM and 3.1 µM
GI50 (HOP-62 NSCLC): 2.48 µM
TGI (HOP-62 NSCLC): 2.36 µM and 5.35 µM
TGI (NCI-H460 lung): 2.74 µM
TGI (EKVX NSCLC): 5.21 µM
GI50 (CAKI-1 renal): 0.16 µM
TGI (CAKI-1 renal): 0.894 µM and 0.382 µM
GI50 (HOP-92 NSCLC): 0.27 µM
TGI (HOP-92 NSCLC): 1.48 µM and 0.887 µM
